Laboratory results reported in patent US10670605B2, “Cysteine reactive probes and uses thereof” (The Scripps Research Institute, priority 2015, dated 2020).
Counter-ions that a name gives are not always drawn.

What was measured:
Assay in all cases: isoTOP-ABPP of compound-treated primary human T cells
Type in all cases: cell-based
[1] = target: T1, Cys residues in primary human T cells (Homo sapiens, UniProt O95336); conditions: PGLS C32 (095336)
T1 sequence (O95336 1-258): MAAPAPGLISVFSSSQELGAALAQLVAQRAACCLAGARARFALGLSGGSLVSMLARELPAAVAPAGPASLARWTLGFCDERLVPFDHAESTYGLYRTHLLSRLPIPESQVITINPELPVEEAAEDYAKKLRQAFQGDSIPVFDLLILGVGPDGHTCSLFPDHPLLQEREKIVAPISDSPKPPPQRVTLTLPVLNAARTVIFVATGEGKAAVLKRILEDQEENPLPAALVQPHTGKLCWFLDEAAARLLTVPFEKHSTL

[2] = target: Cys residues in primary human T cells (Homo sapiens, UniProt O14933); conditions: UBE2L6 C98 (O14933)
[3] = target: Cys residues in primary human T cells (Homo sapiens, UniProt Q96FV9); conditions: THOC1 C49 (Q96FV9)
[4] = target: T2, Cys residues in primary human T cells (Homo sapiens, UniProt P11216); conditions: PYGB C326 (P11216)
T2 sequence (P11216 1-843): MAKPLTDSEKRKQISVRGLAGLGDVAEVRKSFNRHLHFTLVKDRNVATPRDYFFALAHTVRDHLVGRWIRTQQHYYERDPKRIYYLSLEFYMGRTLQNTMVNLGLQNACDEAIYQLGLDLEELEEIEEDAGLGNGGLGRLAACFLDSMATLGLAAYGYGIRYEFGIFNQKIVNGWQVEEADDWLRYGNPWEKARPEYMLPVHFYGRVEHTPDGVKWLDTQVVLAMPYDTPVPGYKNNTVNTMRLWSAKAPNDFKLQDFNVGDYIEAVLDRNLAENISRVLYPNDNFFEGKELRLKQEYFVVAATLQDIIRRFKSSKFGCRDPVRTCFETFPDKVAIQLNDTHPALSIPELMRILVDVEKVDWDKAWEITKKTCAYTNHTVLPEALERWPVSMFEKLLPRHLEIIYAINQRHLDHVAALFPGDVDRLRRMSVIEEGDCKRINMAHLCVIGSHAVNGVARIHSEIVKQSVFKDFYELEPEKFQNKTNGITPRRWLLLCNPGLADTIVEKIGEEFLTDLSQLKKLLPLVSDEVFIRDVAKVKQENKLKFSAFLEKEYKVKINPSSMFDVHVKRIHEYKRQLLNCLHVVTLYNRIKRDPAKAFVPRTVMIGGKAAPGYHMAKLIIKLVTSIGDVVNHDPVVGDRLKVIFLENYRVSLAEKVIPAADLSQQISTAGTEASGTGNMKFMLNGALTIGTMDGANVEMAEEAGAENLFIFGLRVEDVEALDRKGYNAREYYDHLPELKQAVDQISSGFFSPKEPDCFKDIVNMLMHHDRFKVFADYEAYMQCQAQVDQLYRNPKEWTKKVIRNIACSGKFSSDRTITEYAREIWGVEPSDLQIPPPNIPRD

[5] = target: Cys residues in primary human T cells (Homo sapiens, UniProt Q14005); conditions: IL16 C1004 (Q14005)
[6] = target: Cys residues in primary human T cells (Homo sapiens, UniProt Q5T4S7); conditions: UBR4 C2554 (Q5T4S7)
[7] = tested on: Cys residues in primary human T cells; conditions: 4 h

Chain of Cys residues in primary human T cells (Homo sapiens, UniProt Q5T4S7) (Q5T4S7 whole entry): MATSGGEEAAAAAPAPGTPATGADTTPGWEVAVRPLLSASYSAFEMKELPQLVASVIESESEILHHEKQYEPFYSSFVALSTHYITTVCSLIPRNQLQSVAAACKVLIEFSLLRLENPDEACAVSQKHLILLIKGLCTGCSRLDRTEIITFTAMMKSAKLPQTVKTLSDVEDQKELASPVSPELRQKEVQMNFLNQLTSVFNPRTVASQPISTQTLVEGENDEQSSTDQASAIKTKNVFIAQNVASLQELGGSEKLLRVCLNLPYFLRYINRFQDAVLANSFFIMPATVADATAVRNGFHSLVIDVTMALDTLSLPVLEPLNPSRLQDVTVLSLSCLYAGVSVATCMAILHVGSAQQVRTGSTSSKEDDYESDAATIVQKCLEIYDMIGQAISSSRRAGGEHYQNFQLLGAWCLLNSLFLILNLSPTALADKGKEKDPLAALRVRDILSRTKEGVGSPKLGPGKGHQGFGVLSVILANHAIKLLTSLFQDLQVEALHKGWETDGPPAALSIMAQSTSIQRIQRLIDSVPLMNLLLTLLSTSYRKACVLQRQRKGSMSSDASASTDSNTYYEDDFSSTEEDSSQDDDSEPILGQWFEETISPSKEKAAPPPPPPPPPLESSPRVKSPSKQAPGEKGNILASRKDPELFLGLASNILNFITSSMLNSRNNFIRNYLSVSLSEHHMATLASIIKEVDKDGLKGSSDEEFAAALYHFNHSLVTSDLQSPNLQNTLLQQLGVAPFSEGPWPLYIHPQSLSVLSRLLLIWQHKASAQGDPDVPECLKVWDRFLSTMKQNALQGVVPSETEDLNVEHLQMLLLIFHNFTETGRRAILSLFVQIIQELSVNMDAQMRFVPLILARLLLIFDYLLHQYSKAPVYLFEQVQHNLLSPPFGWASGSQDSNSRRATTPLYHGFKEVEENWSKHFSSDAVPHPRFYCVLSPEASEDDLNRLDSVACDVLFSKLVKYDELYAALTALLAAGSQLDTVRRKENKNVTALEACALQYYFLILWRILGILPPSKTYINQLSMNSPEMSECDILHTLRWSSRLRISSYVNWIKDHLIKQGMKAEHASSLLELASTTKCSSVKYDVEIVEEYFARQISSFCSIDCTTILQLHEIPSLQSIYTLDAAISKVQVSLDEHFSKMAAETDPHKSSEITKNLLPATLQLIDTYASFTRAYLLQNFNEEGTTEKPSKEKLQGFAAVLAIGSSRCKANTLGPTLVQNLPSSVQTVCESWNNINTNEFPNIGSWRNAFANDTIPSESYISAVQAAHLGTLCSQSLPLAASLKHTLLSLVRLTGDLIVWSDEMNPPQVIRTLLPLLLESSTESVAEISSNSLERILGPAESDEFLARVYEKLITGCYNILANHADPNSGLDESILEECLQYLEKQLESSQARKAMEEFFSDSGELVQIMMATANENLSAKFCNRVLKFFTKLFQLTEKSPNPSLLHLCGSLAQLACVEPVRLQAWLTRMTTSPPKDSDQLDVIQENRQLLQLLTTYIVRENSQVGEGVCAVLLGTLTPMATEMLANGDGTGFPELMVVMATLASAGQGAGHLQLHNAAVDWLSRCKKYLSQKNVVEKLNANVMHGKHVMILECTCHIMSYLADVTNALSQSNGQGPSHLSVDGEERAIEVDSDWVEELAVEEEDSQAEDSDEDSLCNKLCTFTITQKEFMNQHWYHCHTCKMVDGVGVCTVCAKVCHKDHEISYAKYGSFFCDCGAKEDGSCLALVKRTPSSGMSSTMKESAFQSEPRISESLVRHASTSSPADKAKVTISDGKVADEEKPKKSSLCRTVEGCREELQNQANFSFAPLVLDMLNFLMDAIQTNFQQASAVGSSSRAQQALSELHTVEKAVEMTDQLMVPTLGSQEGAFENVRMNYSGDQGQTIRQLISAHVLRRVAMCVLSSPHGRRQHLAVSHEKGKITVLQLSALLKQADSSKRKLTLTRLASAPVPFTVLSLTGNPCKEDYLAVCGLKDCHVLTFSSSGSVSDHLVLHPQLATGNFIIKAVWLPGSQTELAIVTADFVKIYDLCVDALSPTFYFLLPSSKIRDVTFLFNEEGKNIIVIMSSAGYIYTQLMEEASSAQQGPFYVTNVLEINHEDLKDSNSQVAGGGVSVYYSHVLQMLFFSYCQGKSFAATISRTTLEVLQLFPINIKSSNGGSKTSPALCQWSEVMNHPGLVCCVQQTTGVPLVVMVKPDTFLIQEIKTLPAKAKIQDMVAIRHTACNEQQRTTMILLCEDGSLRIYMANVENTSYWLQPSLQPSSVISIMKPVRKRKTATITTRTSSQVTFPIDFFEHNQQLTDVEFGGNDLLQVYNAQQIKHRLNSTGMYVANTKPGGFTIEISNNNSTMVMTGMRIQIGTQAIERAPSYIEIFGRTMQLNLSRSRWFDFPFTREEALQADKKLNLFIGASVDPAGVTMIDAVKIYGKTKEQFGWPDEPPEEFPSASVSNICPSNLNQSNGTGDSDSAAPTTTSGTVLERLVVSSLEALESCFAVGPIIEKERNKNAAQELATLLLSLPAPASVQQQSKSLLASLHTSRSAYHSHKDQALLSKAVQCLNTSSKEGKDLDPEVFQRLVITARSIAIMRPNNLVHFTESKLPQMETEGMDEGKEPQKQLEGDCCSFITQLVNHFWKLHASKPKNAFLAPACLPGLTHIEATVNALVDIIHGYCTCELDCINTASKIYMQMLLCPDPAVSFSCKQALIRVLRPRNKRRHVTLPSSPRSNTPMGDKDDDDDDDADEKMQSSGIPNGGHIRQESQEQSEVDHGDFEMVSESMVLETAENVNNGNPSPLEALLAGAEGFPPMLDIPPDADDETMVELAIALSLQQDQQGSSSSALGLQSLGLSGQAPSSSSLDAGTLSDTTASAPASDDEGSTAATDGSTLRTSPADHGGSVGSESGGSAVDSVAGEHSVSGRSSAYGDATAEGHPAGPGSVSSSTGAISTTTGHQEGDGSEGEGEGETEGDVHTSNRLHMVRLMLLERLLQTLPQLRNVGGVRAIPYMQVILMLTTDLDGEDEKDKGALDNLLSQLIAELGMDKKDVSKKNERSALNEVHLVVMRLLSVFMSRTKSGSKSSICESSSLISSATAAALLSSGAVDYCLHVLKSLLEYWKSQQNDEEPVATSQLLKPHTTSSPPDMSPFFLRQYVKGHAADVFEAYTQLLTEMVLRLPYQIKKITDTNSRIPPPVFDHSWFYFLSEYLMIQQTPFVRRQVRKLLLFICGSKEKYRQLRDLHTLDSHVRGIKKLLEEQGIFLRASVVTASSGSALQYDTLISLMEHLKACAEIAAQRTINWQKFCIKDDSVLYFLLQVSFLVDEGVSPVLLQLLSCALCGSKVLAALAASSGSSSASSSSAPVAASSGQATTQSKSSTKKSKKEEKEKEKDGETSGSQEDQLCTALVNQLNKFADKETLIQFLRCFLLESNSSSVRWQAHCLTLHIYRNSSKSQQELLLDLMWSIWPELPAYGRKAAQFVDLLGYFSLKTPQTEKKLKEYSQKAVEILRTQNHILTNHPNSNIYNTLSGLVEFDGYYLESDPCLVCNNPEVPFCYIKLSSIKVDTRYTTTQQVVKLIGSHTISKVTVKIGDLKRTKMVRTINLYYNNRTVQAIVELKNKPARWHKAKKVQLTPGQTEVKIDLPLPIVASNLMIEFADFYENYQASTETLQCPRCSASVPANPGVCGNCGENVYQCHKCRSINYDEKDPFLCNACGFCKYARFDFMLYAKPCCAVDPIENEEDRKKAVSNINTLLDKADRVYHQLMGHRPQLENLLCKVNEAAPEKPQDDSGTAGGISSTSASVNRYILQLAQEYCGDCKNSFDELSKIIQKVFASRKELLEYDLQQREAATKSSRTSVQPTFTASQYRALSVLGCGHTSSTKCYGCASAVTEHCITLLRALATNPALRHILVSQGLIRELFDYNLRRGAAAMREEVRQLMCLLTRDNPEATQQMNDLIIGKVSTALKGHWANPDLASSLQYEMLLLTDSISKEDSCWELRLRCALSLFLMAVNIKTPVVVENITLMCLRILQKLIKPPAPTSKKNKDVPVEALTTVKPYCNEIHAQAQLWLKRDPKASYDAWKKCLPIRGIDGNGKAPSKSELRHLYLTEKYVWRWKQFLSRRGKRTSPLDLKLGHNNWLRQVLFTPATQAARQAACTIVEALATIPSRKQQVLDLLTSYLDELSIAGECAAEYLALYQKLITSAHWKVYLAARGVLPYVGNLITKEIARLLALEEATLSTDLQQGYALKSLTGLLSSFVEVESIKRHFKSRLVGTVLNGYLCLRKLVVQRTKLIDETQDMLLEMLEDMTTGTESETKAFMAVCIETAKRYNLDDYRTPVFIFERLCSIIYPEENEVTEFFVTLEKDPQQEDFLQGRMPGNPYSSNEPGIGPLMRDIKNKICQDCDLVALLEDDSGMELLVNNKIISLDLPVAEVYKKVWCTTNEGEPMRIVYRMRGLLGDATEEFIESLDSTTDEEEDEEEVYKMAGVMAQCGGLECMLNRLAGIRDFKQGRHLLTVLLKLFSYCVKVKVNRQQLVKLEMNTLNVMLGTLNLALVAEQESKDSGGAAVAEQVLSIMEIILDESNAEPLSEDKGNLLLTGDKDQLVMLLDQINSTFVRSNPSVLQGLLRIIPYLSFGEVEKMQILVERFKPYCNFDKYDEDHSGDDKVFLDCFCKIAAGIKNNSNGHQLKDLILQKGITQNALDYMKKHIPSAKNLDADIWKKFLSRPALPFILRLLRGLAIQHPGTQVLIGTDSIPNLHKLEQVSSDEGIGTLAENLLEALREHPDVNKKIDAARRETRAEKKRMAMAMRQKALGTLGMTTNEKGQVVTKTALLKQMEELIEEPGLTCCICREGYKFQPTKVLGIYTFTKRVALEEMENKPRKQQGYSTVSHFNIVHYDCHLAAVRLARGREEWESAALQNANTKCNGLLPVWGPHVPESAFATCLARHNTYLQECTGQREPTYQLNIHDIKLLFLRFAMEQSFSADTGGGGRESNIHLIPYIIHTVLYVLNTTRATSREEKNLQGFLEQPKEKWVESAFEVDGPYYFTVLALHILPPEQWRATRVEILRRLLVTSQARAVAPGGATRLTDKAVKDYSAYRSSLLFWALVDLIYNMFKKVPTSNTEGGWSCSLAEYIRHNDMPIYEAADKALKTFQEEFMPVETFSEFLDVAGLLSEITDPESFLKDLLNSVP

COC(=O)/C=C/C(=O)OC [DMF, dimethyl fumarate]
R value (DMSO/DMF) ([1]; DMF 10 μM 4h): 1.9 | R value (DMSO/DMF) ([1]; DMF 25 μM 4h): 5.32 | R value (DMSO/DMF) ([1]; DMF 50 μM 1h): 3.42 | R value (DMSO/DMF) ([1]; DMF 50 μM 2h): 9.49 | R value (DMSO/DMF) ([1]; DMF 50 μM 4h): 11.51 | R value (DMSO/DMF) ([2]; DMF 10 μM 4h): 1.49 | R value (DMSO/DMF) ([2]; DMF 50 μM 1h): 2.44 | R value (DMSO/DMF) ([2]; DMF 50 μM 2h): 2.92 | R value (DMSO/DMF) ([2]; DMF 50 μM 4h): 12.55 | R value (DMSO/DMF) ([3]; DMF 50 μM 1h): 3.93 | R value (DMSO/DMF) ([3]; DMF 50 μM 2h): 5.7 | R value (DMSO/DMF) ([4]; DMF 10 μM 4h): 1.65 | R value (DMSO/DMF) ([4]; DMF 25 μM 4h): 3.53 | R value (DMSO/DMF) ([4]; DMF 50 μM 1h): 2.47 | R value (DMSO/DMF) ([4]; DMF 50 μM 2h): 3.73 | R value (DMSO/DMF) ([4]; DMF 50 μM 4h): 6.76 | R value (DMSO/DMF) ([5]; DMF 10 μM 4h): 1.37 | R value (DMSO/DMF) ([5]; DMF 50 μM 1h): 1.95 | R value (DMSO/DMF) ([5]; DMF 50 μM 2h): 3.32 | R value (DMSO/DMF) ([5]; DMF 50 μM 4h): 4.13 | R value (DMSO/DMF) ([6]; DMF 10 μM 4h): 1.52 | R value (DMSO/DMF) ([6]; DMF 50 μM 1h): 1.6 | R value (DMSO/DMF) ([6]; DMF 50 μM 2h): 2.1 | R value (DMSO/DMF) ([6]; DMF 50 μM 4h): 4.63 | DMF-sensitive Cys residues detected ([7]; 10 μM): very few | number of Cys residues with R value >4 (of more than 2400 quantified) ([7]; 50 μM): ~40
